Assay results as given in ChEMBL document CHEMBL1201862, “PubChem BioAssay data set” (2004).
“And” between values parts separate entries of the source, which are not always exact repeats. Identical values can stand only once.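 How tested: cells in 96-well plates exposed to compound for 48 hours at five concentrations. Abbreviation: GI50, concentration required for 50% inhibition of growth.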 The source made the active and inactive calls. Rule as the data show it: active = GI50 up to about 1.1 µM and inactive = higher.

Columns and labels:
Test in all cases: NCI tumour cell line growth inhibition, 48 h
[1] = test system: U-251
[2] = test system: PC-3
[3] = test system: CAKI-1
[4] = test system: HCT-116
[5] = test system: SK-MEL-5
[6] = test system: UACC-257
[7] = test system: UACC-62
[8] = test system: Malme-3M
[9] = test system: BT-549
[10] = test system: Hs-578T
[11] = test system: SN12C
[12] = test system: NCI/ADR-RES
[13] = test system: OVCAR-5
[14] = test system: SF-539
[15] = test system: KM12
[16] = test system: SR
[17] = test system: SNB-19
[18] = test system: MOLT-4
[19] = test system: RPMI-8226
[20] = test system: HCC 2998

Measured: GI50

c1ccc(CCCNc2nnnc3ccccc23)cc1
inactive: [1] > 100 µM | [2] > 100 µM | [3] 46.7 µM | [4] > 100 µM | [5] 32.4 µM | [6] 67.6 µM | [7] 36 µM | [8] 58.2 µM | [9] > 100 µM | [10] 34.8 µM | [11] > 100 µM | [12] 39.4 µM | [13] > 100 µM | [14] 57 µM | [15] > 100 µM | [16] 92.9 µM | [17] > 100 µM | [18] 35.6 µM | [19] 35.8 µM

O=[N+]([O-])c1cccnc1-n1cnc2ccccc21
inactive: [1] > 100 µM | [2] > 100 µM | [3] > 100 µM | [4] > 100 µM | [5] > 100 µM | [6] > 100 µM | [7] > 100 µM | [20] > 100 µM | [8] > 100 µM | [9] > 100 µM | [10] > 100 µM | [12] > 100 µM | [13] > 100 µM | [14] > 100 µM | [15] > 100 µM | [16] > 100 µM | [18] > 100 µM | [19] > 100 µM

COc1ccc(-n2cnc3c(NC(Cc4ccccc4)C(=O)O)ncnc32)cc1 (stereo not given)
inactive: [1] > 100 µM | [2] > 100 µM | [3] > 100 µM | [4] > 100 µM | [5] > 100 µM | [6] > 100 µM | [7] > 100 µM | [20] > 100 µM | [9] > 100 µM | [10] > 100 µM | [11] > 100 µM | [12] > 100 µM | [13] > 100 µM | [15] > 100 µM | [16] > 100 µM | [17] > 10 µM | [19] > 100 µM

CN(Cc1c[n+]([O-])c2nc(N)nc(N)c2n1)c1ccc(C(=O)NC23CC4CC(CC(C4)C2)C3)cc1
inactive: [1] 34.5 µM | [2] 89.7 µM | [3] > 100 µM | [4] > 100 µM | [5] 34.7 µM | [6] > 100 µM | [7] > 100 µM | [8] 78.2 µM | [9] 28.2 µM | [10] 10.6 µM | [11] > 100 µM | [12] > 100 µM | [13] > 100 µM | [15] > 100 µM | [16] 28.8 µM | [17] 92.7 µM | [18] 32.7 µM | [19] 93.1 µM

Cc1ccc(S(=O)(=O)N2CC2CCCCC=O)cc1 (stereo not given)
inactive: [1] 27.4 µM | [2] > 100 µM | [3] > 100 µM | [4] 57 µM | [5] 54.2 µM | [6] > 100 µM | [7] 50.7 µM | [8] > 100 µM | [9] > 100 µM | [10] 44.3 µM | [11] > 100 µM | [12] > 100 µM | [13] > 100 µM | [15] 63.1 µM | [16] 17.1 µM | [17] > 100 µM | [18] 37.4 µM | [19] 37.8 µM

CCCCCCCCCc1cc(-c2ccc(C=O)s2)sc1-c1ccc(C=O)s1
inactive: [1] 10 µM | [2] 37.8 µM | [4] 16.6 µM | [5] 15.7 µM | [6] 13.6 µM | [7] 7.26 µM | [20] 35.6 µM | [8] 40.5 µM | [9] 35.3 µM | [10] 17.9 µM | [11] 32.5 µM | [12] 19.6 µM | [13] 29.5 µM | [14] 41.1 µM | [15] 36.6 µM | [16] 4.08 µM | [17] 22.6 µM | [18] 1.12 µM | [19] 11.4 µM

CCN(CC)CC(=O)Nc1c(C(N)=O)nnn1Cc1cc(Cl)c(C(=O)c2ccc(Cl)cc2)c(Cl)c1
inactive: [1] 19.5 µM | [2] 16.8 µM | [3] 22.5 µM | [4] 16.5 µM | [5] 16.4 µM | [6] 18.1 µM | [7] 17.6 µM | [20] 17.7 µM | [9] 17.8 µM | [10] 14.3 µM | [11] 22.6 µM | [12] 15.8 µM | [13] 19.5 µM | [14] 16.5 µM | [15] 18.8 µM | [16] 23.8 µM | [17] 34.9 µM | [18] 16.3 µM | [19] 22.3 µM

CN(C)C(=S)/N=C1\SC(=N\c2ccccc2)/C(=N/c2ccccc2)N1c1ccc([N+](=O)[O-])cc1
inactive: [1] > 100 µM | [2] 8.32 µM | [3] > 100 µM | [4] > 100 µM | [5] > 100 µM | [7] > 100 µM | [20] > 100 µM | [8] > 100 µM | [9] > 100 µM | [10] > 100 µM | [11] > 100 µM | [12] > 100 µM | [13] > 100 µM | [15] > 100 µM | [16] > 100 µM | [17] > 100 µM | [18] 38.5 µM | [19] > 100 µM

O=C(Cc1ccc(Cl)c(Cl)c1)NCC1(N2CCCCC2)CCCCC1
inactive: [1] 69.3 µM | [2] 40.1 µM | [3] > 100 µM | [4] 40.6 µM | [6] 17.8 µM | [7] 20.2 µM | [20] 17 µM | [8] 21.3 µM | [9] 55.5 µM | [10] 52.2 µM | [11] 66.8 µM | [12] 93.5 µM | [13] 47.1 µM | [15] 50.7 µM | [16] 35.5 µM | [17] > 100 µM | [18] 35.5 µM | [19] 35.3 µM

Cc1c/c(=N\c2ccc3c(c2)c(N)cc(C)[n+]3C)nc(N)n1C
inactive: [1] 88.3 µM | [2] > 100 µM | [3] > 100 µM | [4] > 100 µM | [5] > 100 µM | [6] > 100 µM | [7] > 100 µM | [8] > 100 µM | [9] > 100 µM | [10] > 100 µM | [11] 92.7 µM | [12] > 100 µM | [13] > 100 µM | [14] > 100 µM | [15] > 100 µM | [16] > 100 µM | [17] > 100 µM | [18] > 100 µM | [19] > 100 µM

COc1ccc(C(O)c2ccccn2)cc1 (stereo not given)
inactive: [1] > 100 µM | [2] > 100 µM | [3] > 100 µM | [4] > 100 µM | [5] > 100 µM | [6] > 100 µM | [7] > 100 µM | [8] > 100 µM | [9] > 100 µM | [10] > 100 µM | [11] > 100 µM | [12] > 100 µM | [13] > 100 µM | [14] > 100 µM | [15] > 100 µM | [16] > 100 µM | [17] > 100 µM | [18] > 100 µM | [19] > 100 µM

NC(CSC(=O)c1ccccc1)C(=O)O (stereo not given)
inactive: [1] > 100 µM | [2] > 100 µM | [3] > 100 µM | [4] > 100 µM | [5] > 100 µM | [6] > 100 µM | [7] > 100 µM | [8] > 100 µM | [9] > 100 µM | [10] > 100 µM | [11] > 100 µM | [12] > 100 µM | [13] > 100 µM | [14] > 100 µM | [15] > 100 µM | [16] > 100 µM | [17] > 100 µM | [18] > 100 µM | [19] > 100 µM

CCOC(=O)N/N=C(/N)c1cccc([N+](=O)[O-])c1
inactive: [1] > 100 µM | [2] > 100 µM | [3] > 100 µM | [4] > 100 µM | [5] > 100 µM | [6] > 100 µM | [7] > 100 µM | [20] > 100 µM | [8] > 100 µM | [9] > 100 µM | [10] > 100 µM | [11] > 100 µM | [12] > 100 µM | [13] > 100 µM | [14] > 100 µM | [15] > 100 µM | [16] > 100 µM | [17] > 100 µM | [18] > 100 µM

Cc1nc(C(N)=S)sc1C(=O)CC(=O)C(=O)Nc1nc2ccccc2[nH]1
inactive: [1] > 100 µM | [2] > 100 µM | [3] > 100 µM | [4] > 100 µM | [5] > 100 µM | [6] > 100 µM | [7] > 100 µM | [20] > 100 µM | [8] > 100 µM | [9] > 100 µM | [10] > 100 µM | [11] > 100 µM | [12] > 100 µM | [13] > 100 µM | [14] > 100 µM | [15] > 100 µM | [16] > 100 µM | [18] > 100 µM | [19] > 100 µM

CC#CC#C/C=C1\C=CC2(OC=CC2OC(C)=O)O1 (stereo not given)
inactive: [1] 19.5 µM and 18.5 µM | [2] 28.2 µM | [3] 15.2 µM and > 10 µM | [5] 17.9 µM | [7] 18.9 µM and 16.4 µM | [20] 22 µM and 28 µM | [8] 24.8 µM and 26.4 µM | [9] 34.7 µM | [10] 27.4 µM | [11] 15.7 µM and 16.5 µM | [12] 28.6 µM | [14] 25.5 µM and 20.7 µM | [15] 21.7 µM and 21.8 µM | [16] 17.6 µM and 15.3 µM | [17] > 100 µM and > 82.2 µM | [19] 23.2 µM
